The record followed here is patent publication US20230233583A1, “USE OF PHYTOCANNABINOIDS FOR TREATING MULTIPLE MYELOMA” (priority 2020, published 2023).

Usually IC50 stands for the concentration needed to halve the response being measured.

The test system of series [1] is RPMI. As to the kind of experiment: Invasion assay in co-culture of HuOB and RPMI. The format is cell-based, human. Conditions: for effect on MM cell invasion, in words: RPMI in co-culture with HuOB, 24 hours. How it is done:
Invasion assay: HuOB cells (1.5×10^4) were plated on the surface of Matrigel in a BioCoat™ Matrigel® Invasion Chamber, 8.0 μm PET Membrane (Coming®, cod. 354480) and incubated for two days. After, U266 and RPMI (2.5×10^4) were pre-stained with Calcein (1 μM) for two hours, then treated with CBG (12.5 μM), CBC (12.5 μM), CBN (12.5 μM) and CBDV (6.25 μM) and added in the chambers. MM cells with HuOB, untreated, were used as invasion positive control, MM cells without HuOB cells were used as negative control. After 24 hours, the number of MM cells that invaded the Matrigel were analysed via fluorescent microscope. Eight 10× sections images were counted for each chamber.
Invasion assay in co-culture of HuOB and MM cell lines: This study evaluated the effect of phytocannabinoids in reducing the invasion of MM cell lines toward HuOB. HuOB were plated on the surface of Matrigel in the BioCoat™ Matrigel® Invasion Chamber, 8.0 μm PET Membrane (Corning®, cod. 354480) and incubated for two days. After, U266 or RPMI were pre-stained with Calcein (10 μM) for two hours, then treated with CBG (25 μM), CBC (25 μM), CBN (25 μM) and CBDV (12.5 μM) and added in the chambers. MM cells with HuOB, untreated, were used as an invasion positive control, MM cells without HuOB cells were used as a negative control. After 24 hours, the number of MM cells that invaded the Matrigel were analysed via fluorescent microscope. Eight 10× sections images were counted for each chamber.

Series [2] concerns RPMI. The series is described as follows: MTT cytotoxicity assay in RPMI MM cell line. The note with it: for IC50: Homo sapiens, 72 h, read-out: IC50 (μM) ± S.D.; for % VIABILITY ± S.D.: RPMI, daily, 72 hours, vs vehicle. On the procedure: MTT cytotoxicity assay: MM cell lines (4×10^4 cells/ml) were seeded in 96-well plates, in a final volume of 100 μl/well. After 24 hours, CBG, CBC, CBN, CBDV alone and in combination or vehicle were added at different concentrations, for 72 hours. At least six replicates were used for each treatment. At the indicated time point, cell viability was assessed by adding 0.8 mg/ml of 3-[4,5-dimethylthiazol-2-yl]-2,5 diphenyl tetrazolium bromide (MTT) (Sigma-Aldrich) to the media. After 3 hours, the plates were centrifuged, the supernatant was removed, and the pellet was solubilized with 100 μl/well dimethyl sulfoxide (DMSO). The absorbance of the samples against a background control (medium alone) was measured at 570 nm using an ELISA reader microliter plate (BioTek™ Instruments, Winooski, Vt., USA).
Cells were treated with different doses of CBG, CBC, CBN and CBDV (up to 100 μM) and percentage of cell viability was evaluated by the MTT assay.
The cannabinoids were administered daily for 72 hours, as in previous experiments at the desired doses. Each combination was evaluated in six wells and in two separate experiments. MTT assay was used to analyze the cell cytotoxicity. The values in the tables are represented as % of cell viability compared to vehicle-treated cells.
In general terms: Tetrazolium assays rely on reduction of a dye to a coloured formazan, in cell work by metabolically active cells.

Series [3] relates to H2AX levels in MM cell lines. As to the kind of experiment: Western blot analysis for H2AX. The format is cell-based, human. Conditions: 48 hours, daily; CBG, CBN, CBDV 25 μM, CBC 75 μM. On the procedure:
4×10^4 cells were plated in 6 well plates and treated for 48 hours with daily administration of CBG (25 μM; FIG. 17), CBC (75 μM; FIG. 18), CBN (25 μM; FIG. 19) or CBDV (25 μM; FIG. 20). Densitometric analysis was carried out by evaluating two independent experiments by a Chemidoc using the Quantity One software (BioRad, Hercules, USA). H2AX densitometry values were normalized to GAPDH used as loading control and normalized with non-treated cells. Densitometric values shown are the mean±SE of two separate experiments.
Western blot analysis for H2AX: 4×10^4 cells were plated in 6-well plates and treated daily for 48 hours with CBG, CBN or CBDV (25 μM) or CBC (75 μM). Ten micrograms of the myeloma cell line lysates were then separated on a SDS-polyacrylamide gel, transferred onto Hybond-C extra membranes (GE Healthcare), blocked with 5% of Bovine Serum Albumin (BSA) in phosphate buffered saline (PBS)-Tween 20, immunoblotted with rabbit anti-phospho-histone H2AX (Ser139) (1:1000, #9718, Cell Signaling) and rabbit anti-glyceraldehyde-3-phosphate dehydrogenase (GAPDH, 1:3000, #2118, OriGene, Rockville, Md., USA) antibodies incubated overnight and then incubated with their respective HRP-conjugated anti-rabbit (1:2000, Cell Signaling) antibodies for 1 hour. The detection was performed using the LiteAblot™ PLUS or the LiteAblot™ TURBO (EuroClone, Milano, Italy) kits and densitometric analysis was carried out by evaluating three independent experiments by a Chemidoc using the Quantity One software (BioRad, Hercules, USA). H2AX densitometry values were normalized to GAPDH used as loading control and normalized with non-treated cells. Densitometric values shown are the mean±SE of three separate experiments.
Phytocannabinoids induce necrotic cell death in MM cell lines: To evaluate the cytotoxic mechanism induced by the phytocannabinoids, MM cell lines were treated daily with a cytotoxic dose for each phytocannabinoid (CBG: 25 μM; CBC 75 μM; CBN 25 μM; CBDV 25 μM) for 48 hours and then Annexin-V/PI cell positivity was evaluated by FACS analysis. The results evidenced that all of the phytocannabinoids induced necrotic cell death but had different efficacies (FIGS. 5-16). To confirm the necrotic cell death mechanism, MM cell lines were treated as above and DNA damage was evaluated by H2AX (a marker to examine the DNA damage produced and the subsequent repair of the DNA lesion) Western blot analysis and Comet assay (permits the analysis of DNA damage in single cell preparations). The result confirmed the DNA damage induced by the phytocannabinoid analysed. In particular, an increase of H2AX levels were observed by Western blot (FIGS. 17-20) and DNA damage by Comet assay that evidenced structures resembling comets in the treated cell lines (FIGS. 21-24).

Where [4] appears, read: single phytocannabinoid 12.5 μM.

For the molecule `CCCCCc1cc(O)c(C/C=C(\C)CCC=C(C)C)c(O)c1` [CBG, 2-[(2E)-3,7-dimethylocta-2,6-dienyl]-5-pentylbenzene-1,3-diol], in the series on RPMI [1], the “AVERAGE OF CELLS/square (MM cells that invaded the Matrigel)” value (from here on “AVERAGE OF CELLS/square”) is reported as 1.6 ± 0.2 CELLS/square and the “effect on MM cell invasion, in words” value is given as “higher activity”. For the same molecule, the IC50 in the series with RPMI [2] came out at 31.4 ± 1.9 µM. Further, in the series with RPMI [2] (setting [4]), the “% VIABILITY ± S.D.” value was determined as 99.3 ± 8.2%. Further, in the series with RPMI [2] (single phytocannabinoid 25 μM), the “% VIABILITY ± S.D.” value was 69.1 ± 5.5%. The “H2AX levels by Western blot, in words” value in series [3] is “increased H2AX levels”.

On to `CCCCCc1cc(O)c2c(c1)OC(C)(C)c1ccc(C)cc1-2` [CBN, 6,6,9-trimethyl-3-pentylbenzo[c]chromen-1-ol], for which, in the series with RPMI [1], the “AVERAGE OF CELLS/square” value is given as 3.3 ± 0.1 CELLS/square and the “effect on MM cell invasion, in words” value was “higher activity”. Moreover, the IC50 with RPMI [2] worked out at 23.6 ± 0.9 µM. The “% VIABILITY ± S.D.” value in the series with RPMI [2] (setting [4]) worked out at 102.6 ± 7.4%. In the series on RPMI [2] (single phytocannabinoid 25 μM), the “% VIABILITY ± S.D.” value is listed as 81.1 ± 7.7%. Besides, the “H2AX levels by Western blot, in words” value in series [3] is on record as “increased H2AX levels”.

Regarding `C=C(C)[C@@H]1CCC(C)=C[C@H]1c1c(O)cc(CCC)cc1O` [CBDV, 2-[(1R,6R)-3-methyl-6-prop-1-en-2-ylcyclohex-2-en-1-yl]-5-propylbenzene-1,3-diol], in the series with RPMI [1], the “AVERAGE OF CELLS/square” value is 35.6 ± 2.4 CELLS/square. The IC50 in the series on RPMI [2] was determined as 21.7 ± 1.1 µM. Besides, the “% VIABILITY ± S.D.” value is reported as 70.2 ± 5.3% in the series with RPMI [2] (setting [4]) and 40.2 ± 2.4% in the series on RPMI [2] (single phytocannabinoid 25 μM). The “H2AX levels by Western blot, in words” value in series [3] is on record as “increased H2AX levels”.

As for `CCCCCc1cc(O)c2c(c1)OC(C)(CCC=C(C)C)C=C2` (stereo not shown) [CBC, 2-methyl-2-(4-methylpent-3-enyl)-7-pentylchromen-5-ol], the “AVERAGE OF CELLS/square” value in the series on RPMI [1] worked out at 29.3 ± 1.7 CELLS/square. Also, the IC50 in the series with RPMI [2] is 49.6 ± 2.1 µM. Moreover, the “% VIABILITY ± S.D.” value in the series with RPMI [2] (setting [4]) worked out at 104.9 ± 3.6%; in the series on RPMI [2] (single phytocannabinoid 25 μM) it was 98.3 ± 5.1%. Further, the “H2AX levels by Western blot, in words” value in series [3] was “increased H2AX levels”.
